Test results taken from PubChem BioAssay (NCI).
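The concentration for 50% growth inhibition is given as GI50. The concentration for full growth arrest is given as TGI.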

Legend:
Assay in all cases: DTP human tumour cell line panel, 384-well format
COLO 205 colon = tested on: COLO 205 colon
KM12 colon = tested on: KM12 colon
UO-31 renal = tested on: UO-31 renal
UACC-257 melanoma = tested on: UACC-257 melanoma
IGROV1 ovarian = tested on: IGROV1 ovarian
OVCAR-4 ovarian = tested on: OVCAR-4 ovarian
SN12C renal = tested on: SN12C renal
SNB-75 CNS = tested on: SNB-75 CNS
HCT-15 colon = tested on: HCT-15 colon
SF-539 CNS = tested on: SF-539 CNS
SF-268 CNS = tested on: SF-268 CNS
HOP-92 NSCLC = tested on: HOP-92 NSCLC
OVCAR-8 ovarian = tested on: OVCAR-8 ovarian
NCI-H322M lung = tested on: NCI-H322M lung
SNB-19 CNS = tested on: SNB-19 CNS
BT-549 breast = tested on: BT-549 breast
SW-620 colon = tested on: SW-620 colon
SF-295 CNS = tested on: SF-295 CNS
NCI-H460 NSCLC = tested on: NCI-H460 NSCLC
UACC-62 melanoma = tested on: UACC-62 melanoma
ACHN renal = tested on: ACHN renal
U251 glioblastoma = tested on: U251 glioblastoma
A549 NSCLC = tested on: A549 NSCLC
SK-MEL-28 melanoma = tested on: SK-MEL-28 melanoma
TK-10 renal = tested on: TK-10 renal
MCF7 breast = tested on: MCF7 breast
HL-60(TB) leukemia = tested on: HL-60(TB) leukemia
MDA-MB-468 breast = tested on: MDA-MB-468 breast
CAKI-1 renal = tested on: CAKI-1 renal
786-0 renal = tested on: 786-0 renal
SK-MEL-5 melanoma = tested on: SK-MEL-5 melanoma
SR leukemia = tested on: SR leukemia
OVCAR-3 ovarian = tested on: OVCAR-3 ovarian
PC-3 prostate = tested on: PC-3 prostate
MDA-MB-231 breast = tested on: MDA-MB-231 breast
RXF 393 renal = tested on: RXF 393 renal
NCI-H226 lung = tested on: NCI-H226 lung
NCI-H522 lung = tested on: NCI-H522 lung
EKVX NSCLC = tested on: EKVX NSCLC
HCT-116 colon = tested on: HCT-116 colon
T-47D breast = tested on: T-47D breast
MALME-3M melanoma = tested on: MALME-3M melanoma
SK-OV-3 ovarian = tested on: SK-OV-3 ovarian
MDA-MB-435 melanoma = tested on: MDA-MB-435 melanoma
OVCAR-5 ovarian = tested on: OVCAR-5 ovarian
HT29 colon = tested on: HT29 colon
K-562 leukemia = tested on: K-562 leukemia
MOLT-4 leukemia = tested on: MOLT-4 leukemia
SK-MEL-2 melanoma = tested on: SK-MEL-2 melanoma
M14 melanoma = tested on: M14 melanoma
HOP-62 NSCLC = tested on: HOP-62 NSCLC
HS 578T breast = tested on: HS 578T breast
A498 renal = tested on: A498 renal

C=CCNC1=C2C[C@@H](C)C[C@H](OC)[C@H](O)[C@@H](C)/C=C(\C)[C@H](OC(N)=O)[C@@H](OC)/C=C\C=C(/C)C(=O)NC(=CC1=O)C2=O
GI50 (COLO 205 colon): < 0.01 µM
TGI (COLO 205 colon): 0.011 µM
GI50 (KM12 colon): < 0.01 µM
TGI (KM12 colon): 0.0115 µM
GI50 (UO-31 renal): 0.34 µM
TGI (UO-31 renal): 12 µM
GI50 (UACC-257 melanoma): 0.0274 µM
TGI (UACC-257 melanoma): 1.35 µM
GI50 (IGROV1 ovarian): 0.0271 µM
TGI (IGROV1 ovarian): 0.281 µM
GI50 (OVCAR-4 ovarian): 0.158 µM
TGI (OVCAR-4 ovarian): 12 µM
GI50 (SN12C renal): 0.0172 µM
TGI (SN12C renal): 0.255 µM
GI50 (SNB-75 CNS): 0.0138 µM
TGI (SNB-75 CNS): 0.0738 µM
GI50 (HCT-15 colon): 0.0519 µM
TGI (HCT-15 colon): 5.34 µM
GI50 (SF-539 CNS): 0.0139 µM
TGI (SF-539 CNS): 0.0361 µM
GI50 (SF-268 CNS): 0.0274 µM
TGI (SF-268 CNS): 11.1 µM
GI50 (HOP-92 NSCLC): 0.716 µM
TGI (HOP-92 NSCLC): 3.14 µM
GI50 (OVCAR-8 ovarian): 0.0422 µM
TGI (OVCAR-8 ovarian): 0.205 µM
GI50 (NCI-H322M lung): < 0.01 µM
TGI (NCI-H322M lung): 10.1 µM
GI50 (SNB-19 CNS): 0.0508 µM
TGI (SNB-19 CNS): 10.8 µM
GI50 (BT-549 breast): < 0.01 µM
TGI (BT-549 breast): 0.0312 µM
GI50 (SW-620 colon): 0.016 µM
TGI (SW-620 colon): 10.9 µM
GI50 (SF-295 CNS): 0.0219 µM
TGI (SF-295 CNS): 0.121 µM
GI50 (NCI-H460 NSCLC): < 0.01 µM
TGI (NCI-H460 NSCLC): 1.61 µM
GI50 (UACC-62 melanoma): 0.0118 µM
TGI (UACC-62 melanoma): 0.0535 µM
GI50 (ACHN renal): 0.0832 µM
TGI (ACHN renal): 12 µM
GI50 (U251 glioblastoma): 0.0262 µM
TGI (U251 glioblastoma): 0.167 µM
GI50 (A549 NSCLC): < 0.01 µM
TGI (A549 NSCLC): 10.5 µM
GI50 (SK-MEL-28 melanoma): 0.0295 µM
TGI (SK-MEL-28 melanoma): 15.2 µM
GI50 (TK-10 renal): 0.0357 µM
TGI (TK-10 renal): 13.5 µM
GI50 (MCF7 breast): < 0.01 µM
TGI (MCF7 breast): 0.0416 µM
GI50 (HL-60(TB) leukemia): 0.031 µM
TGI (HL-60(TB) leukemia): 0.169 µM
GI50 (MDA-MB-468 breast): 0.18 µM
TGI (MDA-MB-468 breast): 0.733 µM
GI50 (CAKI-1 renal): 0.14 µM
TGI (CAKI-1 renal): 14.7 µM
GI50 ([…]-0 renal): 0.0657 µM
TGI (786-0 renal): 0.271 µM
GI50 (SK-MEL-5 melanoma): < 0.01 µM
TGI (SK-MEL-5 melanoma): 2.9 µM
GI50 (SR leukemia): 0.011 µM
TGI (SR leukemia): 0.0253 µM
GI50 (OVCAR-3 ovarian): 0.0371 µM
TGI (OVCAR-3 ovarian): 0.447 µM
GI50 (PC-3 prostate): 0.0229 µM
TGI (PC-3 prostate): 0.124 µM
GI50 (MDA-MB-231 breast): 0.422 µM
TGI (MDA-MB-231 breast): 2.24 µM
GI50 (RXF 393 renal): 0.0165 µM
TGI (RXF 393 renal): 0.0656 µM
GI50 (NCI-H226 lung): 0.0333 µM
TGI (NCI-H226 lung): 0.44 µM
GI50 (NCI-H522 lung): 0.0136 µM
TGI (NCI-H522 lung): 0.0474 µM
GI50 (EKVX NSCLC): 0.0448 µM
TGI (EKVX NSCLC): 0.419 µM
GI50 (HCT-116 colon): 0.0365 µM
TGI (HCT-116 colon): 8.32 µM
GI50 (T-47D breast): 0.838 µM
TGI (T-47D breast): 6.16 µM
GI50 (MALME-3M melanoma): < 0.01 µM
TGI (MALME-3M melanoma): 0.282 µM
GI50 (SK-OV-3 ovarian): 0.0148 µM
TGI (SK-OV-3 ovarian): 0.0995 µM
GI50 (MDA-MB-435 melanoma): 0.034 µM
TGI (MDA-MB-435 melanoma): 13.7 µM
GI50 (OVCAR-5 ovarian): 0.0592 µM
TGI (OVCAR-5 ovarian): 12.6 µM
GI50 (HT29 colon): < 0.01 µM
TGI (HT29 colon): 10.7 µM
GI50 (K-562 leukemia): 0.0276 µM
TGI (K-562 leukemia): 10.3 µM
GI50 (MOLT-4 leukemia): 0.145 µM
TGI (MOLT-4 leukemia): 0.336 µM
GI50 (SK-MEL-2 melanoma): < 0.01 µM
TGI (SK-MEL-2 melanoma): 0.112 µM
GI50 (M14 melanoma): < 0.01 µM
TGI (M14 melanoma): 11.4 µM
GI50 (HOP-62 NSCLC): 0.0204 µM
TGI (HOP-62 NSCLC): 1.75 µM
GI50 (HS 578T breast): < 0.01 µM
TGI (HS 578T breast): 0.0202 µM
GI50 (A498 renal): 0.0345 µM
TGI (A498 renal): 12.4 µM
